Series [1] deals with T1, rRNA adenine N-6-methyltransferase (Staphylococcus aureus (strain N315)) (UniProt P0A0H2).
T1 sequence (whole entry): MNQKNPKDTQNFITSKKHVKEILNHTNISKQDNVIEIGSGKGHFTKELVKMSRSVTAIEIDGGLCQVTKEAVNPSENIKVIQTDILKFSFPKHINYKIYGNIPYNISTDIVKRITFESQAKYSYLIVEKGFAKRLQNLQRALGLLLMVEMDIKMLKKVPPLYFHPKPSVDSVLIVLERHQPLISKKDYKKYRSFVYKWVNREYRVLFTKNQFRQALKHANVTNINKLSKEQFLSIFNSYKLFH
The series can be described thus: Inhibition of recombinant bacterial ErmC' expressed in Escherichia coli DH5alpha assessed as potentiation of erythromycin-mediated growth inhibition by measuring erythromycin MIC after 18 hrs by dilution method (reference value: > 2560 mg/L). To be noted: Bacteria.

In a further series the test system is Escherichia coli. The experiment in a line: Antibacterial activity against Escherichia coli DH5alpha expressing recombinant bacterial ErmC' after 18 hrs by dilution method. Format: ADME, organism-based, DH5[alpha].
The target of series [2] is T2, rRNA adenine N-6-methyltransferase (Staphylococcus aureus (strain N315), UniProt P0A0H2).
T2 sequence (P0A0H2 whole entry): T1 sequence (whole entry)
The experiment in a line: Inhibition of bacterial C-terminal His6-tagged ErmC' (unknown origin) expressed in Escherichia coli BL21(DE3) assessed as decrease in rRNA methylation using [methyl-3H]AdoMet measured after 1 hr. Further details: species or system Bacteria; call rule not given here.

Series [3] addresses T1, rRNA adenine N-6-methyltransferase (Staphylococcus aureus (strain N315)). The experiment in a line: Inhibition of bacterial C-terminal His6-tagged ErmC' expressed in Escherichia coli BL21(DE3) assessed as decrease of protein binding to [gamma-33P]ATP-labeled 32-nt oligonucleotide at 5.01 mM after 30 mins by filter binding assay relative to control. The settings on record: Bacteria.

Series [4] can be described thus: Cytotoxicity against HEK293 cells assessed as cell viability at 1000 uM after 24 hrs by MTT assay relative to control. To be noted: human, read-out: Activity. It is filed as cell-based. A general note: Tetrazolium dyes change colour on reduction, which living cells bring about.
The nature of series [5]: Cytotoxicity against HEK293 cells assessed as cell viability at 125 uM after 24 hrs by MTT assay relative to control. It is filed as cell-based. The settings on record: human, read-out: Activity.
Series [6] deals with T1, rRNA adenine N-6-methyltransferase (Staphylococcus aureus (strain N315)). The experiment in a line: Inhibition of bacterial C-terminal His6-tagged ErmC' expressed in Escherichia coli BL21(DE3) assessed as decrease of protein binding to [gamma-33P]ATP-labeled 32-nt oligonucleotide at 6.25 mM after 30 mins by filter binding assay relative to control. To be noted: Bacteria.

Series [7] in a line: Cytotoxicity against HEK293 cells assessed as cell viability at 125 to 1000 uM after 24 hrs by MTT assay relative to control. It is filed as cell-based. The settings on record: human.
For series [8], the target named is rRNA adenine N-6-methyltransferase (Staphylococcus aureus, UniProt P02979). The series can be described thus: Inhibition of Staphylococcus aureus ErmC' expressed in Bacillus subtilis BD170 assessed as decrease in rRNA methylation using [methyl-3H]AdoMet measured after 120 mins by beta-plate counting method.
rRNA adenine N-6-methyltransferase (Staphylococcus aureus, UniProt P02979), sequence (P02979 whole entry): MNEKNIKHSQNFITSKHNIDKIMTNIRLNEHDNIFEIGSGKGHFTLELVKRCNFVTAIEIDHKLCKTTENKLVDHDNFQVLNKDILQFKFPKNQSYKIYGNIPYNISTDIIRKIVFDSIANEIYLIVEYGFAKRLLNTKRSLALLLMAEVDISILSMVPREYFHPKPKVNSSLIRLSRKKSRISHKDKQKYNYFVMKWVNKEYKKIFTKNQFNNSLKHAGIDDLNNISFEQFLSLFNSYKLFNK
The next series concerns HEK293. The experiment in a line: Cytotoxicity against HEK293 cells assessed as decrease in cell viability after 24 hrs by MTT assay. Format: cell-based. To be noted: human, hek293, 24 h.
Series [9] has as its target T1, rRNA adenine N-6-methyltransferase (Staphylococcus aureus (strain N315)). The experiment in a line: Uncompetitive inhibition of bacterial C-terminal His6-tagged ErmC' expressed in Escherichia coli BL21(DE3) in presence of [methyl-3H]SAM. The settings on record: Bacteria.

Bounds are passed on as bounds.

For the compound `CCCc1cc(C(=O)Nc2cccc(OCc3ccncc3)c2)[nH]n1`, the MIC is above 2560 µg/mL in series [1] and “>= 100 mg/L” with Escherichia coli.
The like results for `O=C(NCCOc1ccc2c(c1)OCO2)c1ccc2ccccc2n1` were, in that order, above 2560 µg/mL and “>= 100 mg/L”.
With `CCC1N=C(C)C(CN2CCN(c3ccc(C(F)(F)F)cn3)CC2)=N1` (stereo not drawn), in series [2], the IC50 entry is “Not Active”. Besides, the results for the MIC (in series [1]; in the series on Escherichia coli) were 2000 µg/mL and “>= 100 mg/L”, respectively.
As for `O=C(Nc1nccs1)c1cc(-c2ccccn2)nc2ccccc12`, the figures for the MIC (in [1]; with Escherichia coli) were 2560 µg/mL and “>= 100 mg/L”, respectively.
Taken in the same sequence, the figures for `Cn1cnnc1-c1cccc(NC(=O)Cc2cccc(F)c2)c1` were 2560 µg/mL and “>= 100 mg/L”.
In the case of `O=C(c1c[nH]c(=O)[nH]1)N1CCN(c2ccc(C(F)(F)F)cn2)CC1`, the MIC in series [1] was 2560 µg/mL; in the series on Escherichia coli it was “>= 100 mg/L”. In addition, the fold change (FC) in series [3] amounted to 2. Besides, the viability at 24 h, 1000 µM in series [4] worked out at 68%. Besides, the viability at 24 h, 125 µM in [5] amounted to 58%.
For `O=C(Cc1cn2ccsc2n1)Nc1cccc(N2CCCC2=O)c1`, the MIC in series [1] is 2560 µg/mL; in the series on Escherichia coli it was “>= 100 mg/L”.
Taken in the same sequence, the figures for `O=C(c1cc(Cl)c[nH]1)N1CCN(c2ncc(C(F)(F)F)cc2Cl)CC1` were 2000 µg/mL and “>= 100 mg/L”.
Taken in the same sequence, the figures for `Cc1occc1C(=O)Nc1nc(CC(=O)Nc2ccccc2)cs1` were 2560 µg/mL and “>= 100 mg/L”.
As for `Nc1nc(N)nc(COC(=O)c2occc2COc2ccccc2)n1`, the IC50 entry in series [2] is given as “Not Active”. Also, the values for the MIC (in series [1]; in the series with Escherichia coli) were 2560 µg/mL and “>= 100 mg/L”, respectively.
In the case of `O=C(CSc1nnc2c(n1)[nH]c1ccccc12)Nc1ccccn1`, the results for the MIC (in [1]; with Escherichia coli) were 2560 µg/mL and “>= 100 mg/L”, respectively.
`COC(=O)c1sc2ccccc2c1OS(=O)(=O)c1ccc(Cl)cc1`: the fold change (FC) in series [6] turned out to be 3.
On to `O=C(CCn1cncn1)NCc1cccc(NC(=O)C2CCCC2)c1`, for which, in [2], the IC50 entry is given as “Not Active”. Besides, the MIC in [1] was 2560 µg/mL; in the series with Escherichia coli, “>= 100 mg/L”.
For the compound `FC(F)(F)c1ccc(N2CCN(Cc3cn4ccccc4n3)CC2)nc1`, the results for the MIC (in series [1]; with Escherichia coli) were 2560 µg/mL and “>= 100 mg/L”, respectively.
The like results for `Nc1nc(N)nc(CSc2nnc(NCc3ccccc3)s2)n1` were, in that order, 2560 µg/mL and “>= 100 mg/L”.
Taken in the same sequence, the figures for `O=C(NCCSc1ccccc1)c1ccc(-n2cncn2)cc1` were 2560 µg/mL and “>= 100 mg/L”.
As for `O=C(CSc1nc2[nH]cnc2c(=O)[nH]1)Nc1ccc(O)cc1`, the IC50 result in series [2] is “Not Active”. In addition, the MIC in series [1] was 2560 µg/mL; in the series with Escherichia coli, “>= 100 mg/L”.
For the compound `O=C(c1cc(C2CC2)n[nH]1)N1CCN(c2ccc(C(F)(F)F)cn2)CC1`, the MIC was 2560 µg/mL in [1] and “>= 100 mg/L” with Escherichia coli.
As for `Cc1cc(S(N)(=O)=O)cc(NC(=O)Cn2cnc(C#N)n2)c1C`, the IC50 entry in series [2] is “Not Active”. In addition, the values for the MIC (in series [1]; in the series with Escherichia coli) were 2560 µg/mL and “>= 100 mg/L”, respectively.
Regarding `CC(=O)Nc1ccc(S(=O)(=O)NCCc2ccncc2)cc1`, the MIC was above 2560 µg/mL in [1] and “>= 100 mg/L” with Escherichia coli.
The like results for `COc1ccc(C(=O)CSc2nc(O)cc(=O)[nH]2)cc1` were, in that order, 2000 µg/mL and “>= 100 mg/L”.
Taken in the same sequence, the figures for `O=C(Nc1cccc(NCc2ccncc2)c1)c1ccccc1Cl` were 2560 µg/mL and “>= 100 mg/L”.
For `O=C(NCCNc1ccc(C(F)(F)F)cn1)c1cnccn1`, the IC50 entry in series [2] is on record as “Not Active”. Further, the MIC in series [1] is 2000 µg/mL; with Escherichia coli it was “>= 100 mg/L”.
In the case of `O=C(c1cn(-c2ccccc2)nn1)N1CCN(c2ccc(C(F)(F)F)cn2)CC1`, the MIC was 2560 µg/mL in series [1] and “>= 100 mg/L” with Escherichia coli.
Taken in the same sequence, the figures for `O=C(CSc1nc2cccnc2[nH]1)Nc1nccs1` were 2000 µg/mL and “>= 100 mg/L”.
In the case of `O=C(c1csc(Nc2ncccn2)n1)N1CCN(c2ccc(C(F)(F)F)cn2)CC1`, the MIC was 2000 µg/mL in series [1] and “>= 100 mg/L” in the series with Escherichia coli. Also, the viability at 24 h, up to 1000 µM in [7] (read-out: Activity) was 59 to 67%.
On to `O=C(Nc1ccncc1)c1ccn(COc2ccc(F)c(Cl)c2)n1`, for which the results for the MIC (in series [1]; with Escherichia coli) were 2000 µg/mL and “>= 100 mg/L”, respectively.
Taken in the same sequence, the figures for `O=C(Cc1cccc(F)c1)Nc1cccc(-c2ccn[nH]2)c1` were 2560 µg/mL and “>= 100 mg/L”.
The like results for `O=C(Nc1cccc(NC(=O)c2cccc(F)c2)c1)c1ccncc1` were, in that order, 2560 µg/mL and “>= 100 mg/L”.
Taken in the same sequence, the figures for `Nn1c(SCc2nc3ccccc3[nH]2)nnc1-c1ccncc1` were above 2560 µg/mL and “>= 100 mg/L”.
For `CC(C)c1ccc(NC(=S)N/N=C/c2cc(Cl)cc(Cl)c2O)cc1`, in series [8], the half-maximal inhibitory concentration (IC50) turned out to be 450 nM.
With `CN(C)c1ccc(CNC(=O)c2ccc(-n3cncn3)cc2)cc1`, the MIC in series [1] is 2000 µg/mL; with Escherichia coli it was “>= 100 mg/L”.
Regarding `O=C(c1ccn[nH]1)N1CCN(c2ccc(C(F)(F)F)cn2)CC1`, the IC50 entry in [2] is “Not Active”. Besides, the values for the MIC (in [1]; in the series with Escherichia coli) were 2560 µg/mL and “>= 100 mg/L”, respectively.
The like results for `Cc1nccn1-c1ccc(CNc2nc3ccccc3o2)cc1F` were, in that order, “Not Active”, 2000 µg/mL and “>= 100 mg/L”.
As to `O=C(Nc1ccn(CCc2ccncc2)n1)Nc1ccc(F)cc1F`, the MIC in series [1] was above 2560 µg/mL; with Escherichia coli, “>= 100 mg/L”.
In the case of `O=C(NCCNc1ncccc1C(F)(F)F)c1cnccn1`, the IC50 result in [2] is listed as “Not Active”. Further, the MIC in series [1] was 2560 µg/mL; in the series with Escherichia coli, “>= 100 mg/L”.
`O=C(c1cnn[nH]1)N1CCN(c2ccc(C(F)(F)F)cn2)CC1`: the MIC in [1] is 2560 µg/mL; with Escherichia coli, “>= 100 mg/L”.
Consider `CC(=O)Nc1nc(C)c(-c2csc(Nc3cccc(O)c3)n2)s1`, for which the MIC in series [1] was 2000 µg/mL; in the series on Escherichia coli, “>= 100 mg/L”. For the same compound, the viability at 24 h, up to 1000 µM in series [7] (read-out: %max) was 4.5%.
In the case of `CC(=O)c1c[nH]c(C(=O)N2CCN(c3ccc(C(F)(F)F)cn3)CC2)c1`, the results for the MIC (in [1]; with Escherichia coli) were 2560 µg/mL and “>= 100 mg/L”, respectively.
The like results for `O=C(c1n[nH]c(=O)[nH]1)N1CCN(c2ccc(C(F)(F)F)cn2)CC1` were, in that order, 2560 µg/mL and “>= 100 mg/L”.
Turning to `O=C(NCc1cccc(Cn2ccnc2)c1)c1cc2ccccc2o1`, the MIC is above 2560 µg/mL in series [1] and “>= 100 mg/L” with Escherichia coli.
In the case of `Cc1nccc(C(=O)Nc2cc(NC(=O)c3ccccc3)ccc2C)n1`, the IC50 entry in [2] was “Not Active”. In addition, the results for the MIC (in series [1]; with Escherichia coli) were 2560 µg/mL and “>= 100 mg/L”, respectively.
On to `Cc1cccc(Nc2nc(C(=O)N3CCN(c4ccc(C(F)(F)F)cn4)CC3)cs2)n1`, for which the figures for the MIC (in series [1]; in the series with Escherichia coli) were 2560 µg/mL and “>= 100 mg/L”, respectively. The Activity result with HEK293 is “Dose-dependent effect”. Moreover, in series [9], the alphaKi came to 155 µM. For the same compound, in series [4], the viability at 24 h, 1000 µM stood at 16%. Further, in [5], the viability at 24 h, 125 µM amounted to 59%.
In the case of `Cc1cnc(C(=O)NCCNc2ccc(C(F)(F)F)cn2)cn1`, the IC50 entry in series [2] is “Not Active”. Besides, the MIC was 2560 µg/mL in series [1] and “>= 100 mg/L” in the series on Escherichia coli.
With `FC(F)(F)c1ccc(N2CCN(Cc3c[nH]c(-c4ccccc4)n3)CC2)nc1`, the MIC is 2560 µg/mL in series [1] and “>= 100 mg/L” in the series with Escherichia coli.
The like results for `O=C(NC1CCN(c2nc3ccccc3s2)CC1)c1ccncc1` were, in that order, 2560 µg/mL and “>= 100 mg/L”.
Turning to `Cc1cnc(C(=O)NCCNc2ncccc2C(F)(F)F)cn1`, in [2], the 50% inhibitory concentration (IC50) result is “Not Active”. Moreover, the MIC is 2560 µg/mL in series [1] and “>= 100 mg/L” in the series with Escherichia coli.

As usually defined, the IC50 is the concentration needed to halve the response being measured.

(Values after ChEMBL document CHEMBL4145498, “Novel inhibitors of the rRNA ErmC' methyltransferase to block resistance to macrolides, lincosamides, streptogramine B antibiotics” (Eur J Med Chem, 2018).)
